Assay results published in patent US11197859B2 (AUTIFONY THERAPEUTICS LIMITED, priority 2010, dated 2021).

What was measured:
[1] = system: MNTB neurons; test: High-voltage activated potassium currents in MNTB neurons, in vitro; format: cell-based, mouse; details: 10 microM in continuing presence of TEA (1 mM); effect on the TEA-induced reduction
Experimental: Male CBA/Ca mice (aged 12-16 days) were used in these experiments (in accordance with the UK Animals Scientific Procedures Act, 1986). Brain slices containing the medial nucleus of the trapezoid body (MNTB) were prepared as described previously (Brew and Forsythe, 2005).
Chemicals and reagents were purchased from Sigma, (Poole, UK) unless otherwise noted. Reference Example RE1 was dissolved in DMSO and diluted in ACSF to the required concentration.
Recordings from identified MNTB neurons were conducted as previously described (Brew and Forsythe, 2005). Slices was placed in a superfusion chamber on an inverted microscope stage and continuously perfused with gassed (95% O2-5% CO2) ACSF at a rate of 1 ml min-1 at room temperature. Whole-cell recordings were made from visually identified MNTB neurons using an […] amplifier (Molecular Devices, Union City, Calif., USA). Patch solution comprised (in mM) potassium gluconate (97.5), KCl (32.5), Hepes (40), EGTA (5), MgCl2 (1), Na2phosphocreatin (5), pH 7.2 with KOH. Pipettes had resistances of 3-5 MΩ and series resistances were 6-10 MΩ (compensated by 70%, 10 μs lag). Access resistance was frequently monitored and the recording discarded if increases were more than 2 MΩ. […]

[2] = system: Male CD rats; test: Electroshock seizure model in rats; format: in vivo, rat; details: 2 hours before test
Experimental: Male CD rats (85-130 g) were supplied by Charles River, Italy.
Testing involved determining the threshold for tonic hindlimb extensor seizures using a Hugo Sachs Electronik stimulator which delivers a constant current of 0.3 second duration, 50 Hz, sinewave form, fully adjustable between 1 and 300 mA. Stimuli were delivered via corneal electrodes (Stean T O, Atkins A R, Heidbreder C A, Quinn L P, Trail B K, Upton N. (2005) Br J Pharmacol. 144(5):628-35). Seizure threshold was determined using the ‘up and down’ method of Kimball et al. (1957)(Kimball A W, Burnett W T Jr, Doherty D G. (1957) Radiat Res. 7(1):1-12). The first animal tested in each group was stimulated with a current that might be expected to be close to the threshold for induction of a seizure. If a tonic seizure was not induced, then the next animal in the group received a stimulus 5 mA higher. If a tonic seizure was induced, then the next animal received a stimulus 5 mA lower. This is repeated for all animals within the control (vehicle) group. In the case of groups treated with a test compound steps of 5 to 10 mA were used. At the end of the study, blood samples were taken for analysis of the drug concentrations in this compartment (n=4/group).
All doses were calculated as base. Sodium valproate was suspended in Methocell 1% (w/v) and dosed via the oral (p.o.) route at 5 mL/kg 1 hour before test. Reference Example RE1 was dissolved in DMSO and then suspended in Methocell 1% (w/v) to a final DMSO concentration of 5% (v/v). Reference Example RE1 was then dosed p.o. at 5 mL/kg 2 hours before test.
Induction of seizure is measured as an all-or-nothing effect scored as either present (+) or absent (0) for each animal. […] Drug effects were calculated as the % change in CC50. Significant differences between drug-treated animals and appropriate vehicle treated groups were assessed according to the methods of Litchfield and Wilcoxon (1949).

[3] = system: Adult male CD rats; test: Assessment of physiological sleep in the rat (EEG/EMG telemetry); format: in vivo; details: 60 mg/kg oral at CT18, 5 hour period following dosing
Experimental: Adult male CD rats (C. River, Italy) were implanted with telemetric probes and housed singly, under controlled condition (temperature 18-20° C.; relative humidity 45-50%; 12 hours light-dark cycle, lights on at 3 p.m., designated Circadian Time (CT) 0) with free access to food and water.
Reference Example RE1 was formulated in tween (0.1% v/v) and HPMC (0.5% v/v) and was administered orally at doses of 10, 30 and 60 mg/kg (vol. 2 ml/kg) at CT18 (6 hours before lights on). The electroencephalogram (EEG) and electromyogram (EMG) were recorded continuously, starting immediately after administration, using telemetric apparatus (DSI Dataquest® A.R.T. system). EEG and EMG recordings were analysed to evaluate sleep patterns using sleepSign® (Kissei Comtec Co.). Statistical analyses (1-way Anova followed by a Dunnett's test) was performed using Statistica-8 software.

[4] = system: Male CD-1 mice; test: Psychostimulant (amphetamine)-induced hyperactivity in mice; details: AMPH 2 mg/kg i.p. + compound 10 mg/kg p.o. 30 min before; over 60 min; mean ± sem

CC[C@H]1NC(=O)N(c2ccc(Oc3ccc(C)c(OC)c3)nc2)C1=O [RE1, (5R)-5-ethyl-3-(6-{[4-methyl-3-(methyloxy)phenyl]oxy}-3-pyridinyl)-2,4-imidazolidinedione]
amplitude of outward high voltage-activated potassium currents evoked by voltage steps to +40 mV [1]: reversed
increase in seizure threshold (% change in CC50) ([2]; 30 mg/kg p.o.): 91%
increase in seizure threshold (% change in CC50) ([2]; 60 mg/kg p.o.): 218%
time spent in REM sleep [3]: did not affect
time spent in non-REM sleep ([3]; p<0.05, n=8): significantly increased
total sleep time ([3]; p<0.05, n=8): significantly increased
Total Distance Travelled (cm) [4]: 15267 ± 3166 cm
